Test results as given in ChEMBL document CHEMBL4804285, “Small molecule inhibitors of cdk12/cdk13” (2019).
Several values for one entry are separate records, joined by “and”; a condition that tells them apart may be missing. Identical values can stand only once.

Key:
[1] = molecular target: Cyclin-dependent kinase 12 (Homo sapiens, UniProt Q9NYV4); test: Binding affinity towards CDK12 (unknown origin) by Discover X assay
[2] = molecular target: Casein kinase I isoform delta (Homo sapiens, UniProt P48730); test: Inhibition of casein kinase 1delta (unknown origin)
[3] = molecular target: T1, Cyclin-dependent kinase 13 (Homo sapiens, UniProt Q14004); test: Binding affinity towards CDK13 (unknown origin) by Discover X assay
[4] = molecular target: Casein kinase I isoform epsilon (Homo sapiens, UniProt P49674); test: Inhibition of casein kinase 1epsilon (unknown origin)
Sequence of Casein kinase I isoform epsilon (P49674 whole entry, canonical isoform): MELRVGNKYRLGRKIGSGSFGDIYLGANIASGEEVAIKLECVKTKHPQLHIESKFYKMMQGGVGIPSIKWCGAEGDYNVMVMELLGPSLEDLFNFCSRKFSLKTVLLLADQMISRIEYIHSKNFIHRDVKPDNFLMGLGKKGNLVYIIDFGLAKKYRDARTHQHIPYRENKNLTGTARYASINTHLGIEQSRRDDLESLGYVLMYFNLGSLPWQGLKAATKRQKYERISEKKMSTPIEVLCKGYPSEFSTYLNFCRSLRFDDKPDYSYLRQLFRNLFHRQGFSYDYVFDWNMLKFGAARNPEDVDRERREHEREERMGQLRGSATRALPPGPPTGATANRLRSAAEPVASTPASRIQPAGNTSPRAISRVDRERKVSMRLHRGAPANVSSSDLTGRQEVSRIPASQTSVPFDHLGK

Cytochrome P450 2C9 = Cytochrome P450 2C9 (Homo sapiens, UniProt P11712); test: Inhibition of CYP2C9 (unknown origin); type: ADME
Cytochrome P450 1A2 = molecular target: T2, Cytochrome P450 1A2 (Homo sapiens, UniProt P05177); test: Inhibition of CYP1A2 (unknown origin); type: ADME
T2 sequence (P05177 whole entry): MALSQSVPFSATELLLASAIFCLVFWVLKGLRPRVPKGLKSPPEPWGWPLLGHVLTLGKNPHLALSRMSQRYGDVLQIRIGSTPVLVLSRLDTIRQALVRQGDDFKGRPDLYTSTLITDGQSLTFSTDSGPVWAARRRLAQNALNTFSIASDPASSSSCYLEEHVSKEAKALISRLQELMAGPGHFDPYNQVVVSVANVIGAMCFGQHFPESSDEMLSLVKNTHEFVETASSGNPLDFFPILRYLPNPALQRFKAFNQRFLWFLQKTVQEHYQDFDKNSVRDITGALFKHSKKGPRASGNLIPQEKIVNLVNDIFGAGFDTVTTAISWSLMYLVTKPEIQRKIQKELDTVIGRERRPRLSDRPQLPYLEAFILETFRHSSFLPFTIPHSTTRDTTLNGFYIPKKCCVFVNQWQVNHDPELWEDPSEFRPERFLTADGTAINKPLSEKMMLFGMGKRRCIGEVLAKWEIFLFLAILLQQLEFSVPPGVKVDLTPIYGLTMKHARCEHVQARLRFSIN

[5] = AUC (last) in mouse at 20 mg/kg, ip; type: ADME, organism-based; set-up: time 0 - last, route intraperitoneal, dose 20 mg/kg; settings: in vivo
Cytochrome P450 2D6 = Cytochrome P450 2D6 (Homo sapiens, UniProt P10635); test: Inhibition of CYP2D6 (unknown origin); type: ADME
Sequence of Cytochrome P450 2D6 (P10635 whole entry): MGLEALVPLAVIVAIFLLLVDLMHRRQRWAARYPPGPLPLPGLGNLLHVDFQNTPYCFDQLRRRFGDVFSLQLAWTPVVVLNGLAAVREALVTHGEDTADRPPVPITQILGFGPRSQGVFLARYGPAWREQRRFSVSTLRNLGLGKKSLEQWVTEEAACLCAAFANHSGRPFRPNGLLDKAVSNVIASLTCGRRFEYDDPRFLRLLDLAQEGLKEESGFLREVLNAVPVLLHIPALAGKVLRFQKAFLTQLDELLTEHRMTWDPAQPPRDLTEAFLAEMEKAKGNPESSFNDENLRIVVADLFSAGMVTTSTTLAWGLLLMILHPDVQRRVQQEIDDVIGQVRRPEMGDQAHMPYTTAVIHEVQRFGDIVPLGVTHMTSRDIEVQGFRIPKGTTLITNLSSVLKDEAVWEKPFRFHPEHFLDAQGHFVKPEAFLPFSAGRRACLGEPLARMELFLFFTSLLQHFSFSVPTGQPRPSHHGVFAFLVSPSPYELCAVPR

[6] = Cmax in mouse at 20 mg/kg, ip; type: ADME, organism-based; set-up: route intraperitoneal, dose 20 mg/kg; settings: in vivo
Cytochrome P450 3A4 = Cytochrome P450 3A4 (Homo sapiens, UniProt P08684); test: Inhibition of CYP3A4 (unknown origin); type: ADME
Sequence of Cytochrome P450 3A4 (P08684 whole entry): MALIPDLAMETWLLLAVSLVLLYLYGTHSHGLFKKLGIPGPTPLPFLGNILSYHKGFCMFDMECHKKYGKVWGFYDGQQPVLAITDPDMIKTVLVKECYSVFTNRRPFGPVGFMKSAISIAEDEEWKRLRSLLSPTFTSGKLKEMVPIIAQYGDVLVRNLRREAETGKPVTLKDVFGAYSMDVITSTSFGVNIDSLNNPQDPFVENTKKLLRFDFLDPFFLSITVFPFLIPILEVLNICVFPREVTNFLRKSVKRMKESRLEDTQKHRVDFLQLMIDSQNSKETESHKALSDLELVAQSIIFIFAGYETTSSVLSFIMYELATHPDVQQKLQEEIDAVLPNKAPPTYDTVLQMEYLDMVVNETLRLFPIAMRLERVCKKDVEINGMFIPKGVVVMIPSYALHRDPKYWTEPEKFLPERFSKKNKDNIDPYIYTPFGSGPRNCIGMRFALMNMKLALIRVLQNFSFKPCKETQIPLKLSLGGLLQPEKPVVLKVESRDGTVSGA

[7] = molecular target: Cyclin-dependent kinase 19 (Homo sapiens) (UniProt Q9BWU1); test: Inhibition of CDK11 (unknown origin) at 10 uM relative to control
Sequence of Cyclin-dependent kinase 19 (Homo sapiens) (Q9BWU1 whole entry): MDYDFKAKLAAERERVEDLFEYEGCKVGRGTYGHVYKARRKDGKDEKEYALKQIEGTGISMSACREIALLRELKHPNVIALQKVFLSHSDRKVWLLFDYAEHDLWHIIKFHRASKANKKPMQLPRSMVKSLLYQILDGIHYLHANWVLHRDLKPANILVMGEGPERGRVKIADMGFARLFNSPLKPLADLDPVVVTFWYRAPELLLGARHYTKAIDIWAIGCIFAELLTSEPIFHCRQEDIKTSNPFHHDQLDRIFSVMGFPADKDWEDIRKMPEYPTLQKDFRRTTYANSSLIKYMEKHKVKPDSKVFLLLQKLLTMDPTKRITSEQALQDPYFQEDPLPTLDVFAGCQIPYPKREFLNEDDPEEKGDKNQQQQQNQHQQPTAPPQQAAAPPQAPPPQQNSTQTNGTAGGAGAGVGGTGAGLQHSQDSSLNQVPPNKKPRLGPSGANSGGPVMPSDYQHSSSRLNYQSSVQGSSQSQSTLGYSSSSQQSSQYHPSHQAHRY

[8] = molecular target: T3, Cyclin-dependent kinase-like 2 (Homo sapiens) (UniProt Q92772); test: Inhibition of CDKL2 (unknown origin) at 10 uM relative to control
T3 sequence (whole entry): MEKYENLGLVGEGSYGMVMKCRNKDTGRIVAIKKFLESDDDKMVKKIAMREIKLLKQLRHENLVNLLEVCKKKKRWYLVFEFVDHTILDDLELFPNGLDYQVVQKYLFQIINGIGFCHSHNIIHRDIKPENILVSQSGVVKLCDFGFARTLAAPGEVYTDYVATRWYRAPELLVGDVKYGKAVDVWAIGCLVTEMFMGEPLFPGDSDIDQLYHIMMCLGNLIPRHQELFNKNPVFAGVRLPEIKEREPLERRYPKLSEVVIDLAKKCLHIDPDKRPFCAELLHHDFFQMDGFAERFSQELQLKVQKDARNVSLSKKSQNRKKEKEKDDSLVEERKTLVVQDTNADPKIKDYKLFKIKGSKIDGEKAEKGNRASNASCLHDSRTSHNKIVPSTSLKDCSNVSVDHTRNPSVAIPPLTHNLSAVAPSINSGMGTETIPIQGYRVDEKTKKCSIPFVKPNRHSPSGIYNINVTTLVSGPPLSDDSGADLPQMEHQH

[9] = molecular target: CDK4/Cyclin D3 (Homo sapiens) (UniProt P11802+P30281); test: Inhibition of CDK4/Cyclin D3 (unknown origin) at 10 uM relative to control; type: protein-complex assay
[10] = molecular target: Cyclin-dependent kinase 7 (Homo sapiens) (UniProt P50613); test: Inhibition of CDK7 (unknown origin) at 10 uM relative to control
Sequence of Cyclin-dependent kinase 7 (Homo sapiens) (P50613 whole entry): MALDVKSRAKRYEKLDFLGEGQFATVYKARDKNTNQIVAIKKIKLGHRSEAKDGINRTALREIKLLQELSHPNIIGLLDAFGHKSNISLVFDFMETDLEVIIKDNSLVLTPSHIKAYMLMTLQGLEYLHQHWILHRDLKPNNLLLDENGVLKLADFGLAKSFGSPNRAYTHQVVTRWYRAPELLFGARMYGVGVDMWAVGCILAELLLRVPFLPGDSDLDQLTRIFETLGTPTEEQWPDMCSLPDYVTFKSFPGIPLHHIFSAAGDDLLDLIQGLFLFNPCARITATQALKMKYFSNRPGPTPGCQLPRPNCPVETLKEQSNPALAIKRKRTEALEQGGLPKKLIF

[11] = molecular target: Cyclin-dependent kinase-like 3 (Homo sapiens) (UniProt Q8IVW4); test: Inhibition of CDKL3 (unknown origin) at 10 uM relative to control
Sequence of Cyclin-dependent kinase-like 3 (Homo sapiens) (Q8IVW4 whole entry, looked up): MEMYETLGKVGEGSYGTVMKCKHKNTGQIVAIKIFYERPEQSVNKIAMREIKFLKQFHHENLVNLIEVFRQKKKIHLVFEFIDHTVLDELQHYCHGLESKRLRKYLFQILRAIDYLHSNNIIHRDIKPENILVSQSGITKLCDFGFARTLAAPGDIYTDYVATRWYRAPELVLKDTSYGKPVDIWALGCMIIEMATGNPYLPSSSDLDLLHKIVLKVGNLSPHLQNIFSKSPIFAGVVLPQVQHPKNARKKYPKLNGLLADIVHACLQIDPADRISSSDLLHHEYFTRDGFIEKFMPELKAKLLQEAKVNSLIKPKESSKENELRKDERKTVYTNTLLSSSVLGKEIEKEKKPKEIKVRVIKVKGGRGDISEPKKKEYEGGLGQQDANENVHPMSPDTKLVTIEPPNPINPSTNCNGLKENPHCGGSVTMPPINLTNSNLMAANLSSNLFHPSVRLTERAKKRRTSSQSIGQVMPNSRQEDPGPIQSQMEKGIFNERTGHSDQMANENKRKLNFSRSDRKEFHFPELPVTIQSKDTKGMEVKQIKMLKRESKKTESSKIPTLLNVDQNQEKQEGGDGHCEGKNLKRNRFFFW

[12] = molecular target: Cyclin-dependent kinase 2 (Homo sapiens) (UniProt P24941); test: Inhibition of CDK2 (unknown origin) at 10 uM relative to control
[13] = molecular target: Cyclin-dependent kinase 4/cyclin D1 (Homo sapiens) (UniProt P11802+P24385); test: Inhibition of CDK4/Cyclin D1 (unknown origin) at 10 uM relative to control; type: protein-complex assay
[14] = molecular target: Cyclin-dependent kinase 3 (Homo sapiens) (UniProt Q00526); test: Inhibition of CDK3 (unknown origin) at 10 uM relative to control
Sequence of Cyclin-dependent kinase 3 (Homo sapiens) (Q00526 whole entry, looked up): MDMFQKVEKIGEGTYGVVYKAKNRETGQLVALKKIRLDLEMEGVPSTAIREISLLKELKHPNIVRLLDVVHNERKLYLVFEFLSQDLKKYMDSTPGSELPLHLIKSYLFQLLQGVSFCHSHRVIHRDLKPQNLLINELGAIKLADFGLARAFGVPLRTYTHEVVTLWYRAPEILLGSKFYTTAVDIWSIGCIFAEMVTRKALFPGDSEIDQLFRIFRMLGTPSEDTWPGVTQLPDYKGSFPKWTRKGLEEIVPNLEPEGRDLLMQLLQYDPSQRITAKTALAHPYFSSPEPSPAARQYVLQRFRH

[15] = molecular target: T1, Cyclin-dependent kinase 13; test: Inhibition of CDK13 (unknown origin) at 10 uM relative to control
[16] = molecular target: Cyclin-dependent kinase 8 (Homo sapiens) (UniProt P49336); test: Inhibition of CDK8 (unknown origin) at 10 uM relative to control
[17] = molecular target: T4, Cyclin-dependent kinase-like 5 (Homo sapiens) (UniProt O76039); test: Inhibition of CDKL5 (unknown origin) at 10 uM relative to control
T4 sequence (whole entry): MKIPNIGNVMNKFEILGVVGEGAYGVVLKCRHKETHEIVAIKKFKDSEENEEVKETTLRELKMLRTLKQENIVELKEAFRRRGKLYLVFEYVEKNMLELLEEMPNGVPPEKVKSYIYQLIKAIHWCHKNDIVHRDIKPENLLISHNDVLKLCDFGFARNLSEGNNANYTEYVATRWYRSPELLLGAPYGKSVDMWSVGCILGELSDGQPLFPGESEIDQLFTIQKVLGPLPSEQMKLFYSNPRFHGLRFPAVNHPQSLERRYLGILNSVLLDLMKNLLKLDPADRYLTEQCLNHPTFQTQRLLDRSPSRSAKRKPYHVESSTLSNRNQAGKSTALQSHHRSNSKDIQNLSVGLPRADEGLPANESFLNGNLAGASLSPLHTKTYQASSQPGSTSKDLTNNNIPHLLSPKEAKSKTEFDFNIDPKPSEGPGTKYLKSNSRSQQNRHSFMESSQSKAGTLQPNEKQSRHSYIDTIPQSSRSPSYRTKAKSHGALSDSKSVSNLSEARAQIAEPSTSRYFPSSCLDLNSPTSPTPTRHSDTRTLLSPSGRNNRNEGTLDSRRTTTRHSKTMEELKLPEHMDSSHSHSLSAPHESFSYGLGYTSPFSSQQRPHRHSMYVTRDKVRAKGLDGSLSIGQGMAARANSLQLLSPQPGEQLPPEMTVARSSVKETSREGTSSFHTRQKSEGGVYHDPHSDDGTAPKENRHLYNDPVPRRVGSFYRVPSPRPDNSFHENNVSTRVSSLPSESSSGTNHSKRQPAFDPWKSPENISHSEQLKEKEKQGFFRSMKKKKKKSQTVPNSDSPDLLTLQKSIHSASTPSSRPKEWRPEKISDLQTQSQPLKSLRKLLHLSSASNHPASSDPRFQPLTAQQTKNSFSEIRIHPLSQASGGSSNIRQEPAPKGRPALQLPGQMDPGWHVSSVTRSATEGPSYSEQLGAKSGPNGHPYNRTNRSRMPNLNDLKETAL

[18] = molecular target: Cyclin-dependent kinase-like 1 (Homo sapiens) (UniProt Q00532); test: Inhibition of CDKL1 (unknown origin) at 10 uM relative to control
Sequence of Cyclin-dependent kinase-like 1 (Homo sapiens) (Q00532 whole entry): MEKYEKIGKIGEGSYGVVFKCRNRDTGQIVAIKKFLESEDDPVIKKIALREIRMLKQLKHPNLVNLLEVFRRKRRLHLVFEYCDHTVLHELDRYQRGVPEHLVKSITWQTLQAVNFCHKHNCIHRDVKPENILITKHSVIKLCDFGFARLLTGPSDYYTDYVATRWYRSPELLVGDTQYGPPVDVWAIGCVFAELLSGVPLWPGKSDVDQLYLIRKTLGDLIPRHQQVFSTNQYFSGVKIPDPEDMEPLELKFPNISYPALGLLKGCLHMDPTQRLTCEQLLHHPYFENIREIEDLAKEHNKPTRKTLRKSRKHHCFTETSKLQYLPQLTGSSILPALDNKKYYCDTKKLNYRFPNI

[19] = molecular target: Cyclin-dependent kinase 9 (Homo sapiens) (UniProt P50750); test: Inhibition of CDK9 (unknown origin) at 10 uM relative to control
[20] = molecular target: Cyclin-dependent kinase 5 (Homo sapiens) (UniProt Q00535); test: Inhibition of CDK5 (unknown origin) at 10 uM relative to control
[21] = molecular target: Cyclin-dependent kinase 4 (Homo sapiens) (UniProt P11802); test: Inhibition of CDK4 (unknown origin) at 10 uM relative to control

Sequence of Cyclin-dependent kinase 12 (Q9NYV4 whole entry, canonical isoform): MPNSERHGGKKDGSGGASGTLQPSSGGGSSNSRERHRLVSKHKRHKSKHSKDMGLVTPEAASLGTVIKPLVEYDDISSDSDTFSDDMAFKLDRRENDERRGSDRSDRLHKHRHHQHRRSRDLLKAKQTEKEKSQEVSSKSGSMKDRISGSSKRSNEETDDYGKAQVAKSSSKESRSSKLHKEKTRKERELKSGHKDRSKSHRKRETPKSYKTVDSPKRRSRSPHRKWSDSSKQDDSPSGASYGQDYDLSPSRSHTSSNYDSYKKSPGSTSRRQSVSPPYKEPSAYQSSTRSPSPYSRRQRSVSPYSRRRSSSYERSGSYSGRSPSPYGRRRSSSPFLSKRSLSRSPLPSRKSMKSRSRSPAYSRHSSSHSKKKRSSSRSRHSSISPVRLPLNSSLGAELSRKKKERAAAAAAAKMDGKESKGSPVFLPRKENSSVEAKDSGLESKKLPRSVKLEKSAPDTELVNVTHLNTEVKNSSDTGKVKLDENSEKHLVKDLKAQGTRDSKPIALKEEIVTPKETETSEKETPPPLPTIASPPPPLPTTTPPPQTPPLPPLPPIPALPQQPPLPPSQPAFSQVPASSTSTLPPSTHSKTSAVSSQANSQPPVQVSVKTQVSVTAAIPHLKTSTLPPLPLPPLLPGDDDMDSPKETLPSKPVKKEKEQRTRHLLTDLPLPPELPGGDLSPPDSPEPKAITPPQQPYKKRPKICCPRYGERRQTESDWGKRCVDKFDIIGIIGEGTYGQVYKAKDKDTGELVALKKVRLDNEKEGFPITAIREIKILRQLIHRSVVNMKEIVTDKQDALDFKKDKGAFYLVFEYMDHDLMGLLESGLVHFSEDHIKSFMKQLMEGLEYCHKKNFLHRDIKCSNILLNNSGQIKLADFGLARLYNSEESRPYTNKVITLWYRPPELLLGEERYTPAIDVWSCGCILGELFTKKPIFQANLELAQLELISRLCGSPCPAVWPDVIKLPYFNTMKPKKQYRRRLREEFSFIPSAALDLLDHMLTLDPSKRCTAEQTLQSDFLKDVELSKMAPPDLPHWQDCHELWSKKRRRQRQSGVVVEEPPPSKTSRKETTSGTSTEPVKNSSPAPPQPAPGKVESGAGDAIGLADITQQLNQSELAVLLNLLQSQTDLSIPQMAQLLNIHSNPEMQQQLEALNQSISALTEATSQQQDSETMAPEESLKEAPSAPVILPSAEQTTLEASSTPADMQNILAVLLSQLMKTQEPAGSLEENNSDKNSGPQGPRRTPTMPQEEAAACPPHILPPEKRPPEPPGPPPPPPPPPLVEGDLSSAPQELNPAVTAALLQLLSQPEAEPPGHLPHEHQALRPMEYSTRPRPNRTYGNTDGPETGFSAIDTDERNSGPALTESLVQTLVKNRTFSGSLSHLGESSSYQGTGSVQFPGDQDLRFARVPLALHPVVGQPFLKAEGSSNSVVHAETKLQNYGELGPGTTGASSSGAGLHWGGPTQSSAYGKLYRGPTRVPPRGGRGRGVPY

Row | SMILES | Kd [1] [µM] | IC50 [2] [µM] | Kd [3] [µM] | IC50 [4] [µM] | inhibition (INH) (Cytochrome P450 2C9) [%] | inhibition (INH) (Cytochrome P450 1A2) [%] | inhibition (INH) (Cytochrome P450 2D6) [%] | inhibition (INH) (Cytochrome P450 3A4) [%] | inhibition [7] [%] | inhibition [8] [%] | inhibition [9] [%] | inhibition [10] [%] | inhibition [11] [%] | inhibition [12] [%] | inhibition [13] [%] | inhibition [14] [%] | inhibition [15] [%] | inhibition [16] [%] | inhibition [17] [%] | inhibition [18] [%] | other results
1 | FC(F)n1cc(-n2cnc3c(NCc4nc5cc(Cl)c(Cl)cc5[nH]4)nc(N4CCOCC4)nc32)cn1 | 0.31 | 1.26 | 0.009 | 0.709 | – | – | – | – | – | – | – | – | – | – | – | – | – | – | – | – | –
2 | Cn1cc(-n2cnc3c(NCc4nc5cc(Cl)c(Cl)cc5[nH]4)nc(N4CCOC[C@H]4CO)nc32)cn1 | – | 6.07 | – | 5.36 | 54 | 39 | 29 | 54 | – | – | – | – | – | – | – | – | – | – | – | – | AUC(0-t) [5]: 10 µM·h; Cmax [6]: 1430 ng/mL and 2.7 µM
3 | Fc1ccc2[nH]c(CNc3nc(N4CCOCC4)nc4c3ncn4-c3cscn3)nc2c1F | 0.018 | 0.87 | 0.006 | 1.28 | – | 97 | 57 | 89 | – | – | – | – | – | – | – | – | – | – | – | – | –
4 | Cn1cc(-n2cnc3c(NCc4nc5cc(Cl)c(Cl)cc5[nH]4)nc(N4CCOC[C@@H]4CO)nc32)cn1 | – | 0.333 | – | 0.145 | 69 | 42 | 42 | 77 | – | – | – | – | – | – | – | – | – | – | – | – | –
5 | Cn1cc(-n2cnc3c(NCc4nc5c(F)c(F)ccc5[nH]4)nc(N4CCOCC4)nc32)cn1 | – | – | – | – | 23 | 10 | -3 | 56 | 0 | 0 | 99 | 69 | 0 | 6 | 99 | 3 | 100 | 0 | 0 | 16 | inhibition [19]: 43%
6 | Fc1cccc(-n2cnc3c(NCc4nc5c(F)c(F)ccc5[nH]4)nc(N4CCOCC4)nc32)c1 | – | – | – | – | – | – | – | – | 0 | 0 | 95 | 72 | 5 | 1 | 97 | 6 | 100 | 22 | 0 | 8 | inhibition [20]: 18%; inhibition [19]: 69%
7 | COc1cc2nc(CNc3nc(N4CCOCC4)nc4c3ncn4-c3cnn(C)c3)[nH]c2cc1Cl | 0.038 | – | 0.002 | 2.62 | – | – | – | – | – | – | – | 98 | – | – | – | – | 12 | – | – | – | inhibition [21]: 99%
8 | Cc1cc(-n2cnc3c(NCc4nc5c(F)c(F)ccc5[nH]4)nc(N4CCOCC4)nc32)no1 | – | – | – | – | 23 | 5 | 2 | 55 | 23 | 2 | 99 | 69 | 0 | 3 | 99 | 8 | 100 | 40 | 1 | 16 | inhibition [19]: 64%
9 | Cn1cc(-n2cnc3c(NCc4nc5cc(F)c(F)cc5[nH]4)nc(N4CCOCC4)nc32)cn1 | – | – | – | – | 23 | 5 | 2 | 55 | – | – | – | – | – | – | – | – | – | – | – | – | –
